{
  "source": "patent US20050197350A1",
  "about": "“Novel quinoline, tetrahydroquinazoline, and pyrimidine derivatives and methods of treatment related to the use thereof” (TAISHO PHARMACEUTICAL CO., LTD., priority 2003, published 2005)",
  "data": [
    {"biological_target": "MCH receptor (Homo sapiens, UniProt Q99705)", "test": "High throughput functional screening FLIPR/FDSS6000 (intracellular Ca2+ evoked by MCH)", "type": "cell-based", "settings": "FLIPR/FDSS, antagonist activity vs 50 nM MCH; class by percent of control at 10^−7 M or IC50; read-out: class", "summary_of_the_method": "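For antagonist testing, compound-treated cells (30 min, 37 °C) were stimulated with 50 nM MCH and intracellular Ca2+ followed by Fluo4 fluorescence on FLIPR/FDSS6000. Receptor was a constitutively active, non-endogenous MCH receptor; dye loading 4 μM Fluo4-AM, 1 h, 37 °C.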", "units": {"IC50": "nM"}, "values": [
      {"compound": "COc1nc(N[C@H]2CC[C@@H](NC(=O)c3ccc(Cl)c(Cl)c3)CC2)ncc1C", "note": "[Example 3278, 3,4-dichloro-N-{cis-4-[(4-methoxy-5-methylpyrimidin-2-yl)amino]cyclohexyl}benzamide]", "IC50": "50 to 200"},
      {"compound": "COc1nc(N[C@H]2CC[C@@H](NC(=O)c3cc(Cl)cc(Cl)c3)CC2)ncc1C", "note": "[Example 3279, 3,5-dichloro-N-{cis-4-[(4-methoxy-5-methylpyrimidin-2-yl)amino]cyclohexyl}benzamide]", "IC50": "> 200"},
      {"compound": "COc1nc(N[C@H]2CC[C@@H](NC(=O)c3cc(C(F)(F)F)cc(C(F)(F)F)c3)CC2)ncc1C", "note": "[Example 3280, N-{cis-4-[(4-methoxy-5-methylpyrimidin-2yl)amino]cyclohexyl}-3,5-bis(trifluoromethyl)benzamide]", "IC50": "> 200"},
      {"compound": "Cc1cnc(N[C@H]2CC[C@@H](NC(=O)c3cccnc3S(=O)(=O)c3ccc(F)cc3)CC2)nc1N(C)C", "note": "[Example 3281, N-(cis-4-{[4-(dimethylamino)-5-methylpyrimidin-2-yl]amino}cyclohexyl)-2-[(4-fluorophenyl)sulfonyl]nicotinamide]", "IC50": "< 50"},
      {"compound": "Cc1cnc(N[C@H]2CC[C@@H](NC(=O)c3cccnc3S(=O)(=O)c3ccc(Cl)cc3)CC2)nc1N(C)C", "note": "[Example 3282, 2-[(4-chlorophenyl)sulfonyl]-N-(cis-4-{[4-(dimethylamino)-5-methylpyrimidin-2-yl]amino}cyclohexyl)nicotinamide]", "IC50": "< 50"},
      {"compound": "Cc1cnc(N[C@H]2CC[C@@H](NC(=O)c3cccnc3S(=O)(=O)c3cccc(Cl)c3)CC2)nc1N(C)C", "note": "[Example 3283, 2-[(3-chlorophenyl)sulfonyl]-N-(cis-4-{[4-(dimethylamino)-5-methylpyrimidin-2-yl]amino}cyclohexyl)nicotinamide]", "IC50": "50 to 200"},
      {"compound": "Cc1cnc(N[C@H]2CC[C@@H](NC(=O)c3cccnc3S(=O)(=O)c3ccccc3Cl)CC2)nc1N(C)C", "note": "[Example 3284, 2-[(2-chlorophenyl)sulfonyl]-N-(cis-4-{[4-(dimethylamino)-5-methylpyrimidin-2-yl]amino}cyclohexyl)nicotinamide]", "IC50": "50 to 200"},
      {"compound": "Cc1cnc(N[C@H]2CC[C@@H](NC(=O)c3cccnc3S(=O)(=O)c3cccc(Br)c3)CC2)nc1N(C)C", "note": "[Example 3285, 2-[(3-bromophenyl)sulfonyl]-N-(cis-4-{[4-(dimethylamino)-5-methylpyrimidin-2-yl]amino}cyclohexyl)nicotinamide]", "IC50": "50 to 200"},
      {"compound": "COc1ccc(S(=O)(=O)c2ncccc2C(=O)N[C@H]2CC[C@@H](Nc3ncc(C)c(N(C)C)n3)CC2)cc1", "note": "[Example 3286, N-(cis-4-{[4-(dimethylamino)-5-methylpyrimidin-2-yl]amino}cyclohexyl)-2-[(4-methoxyphenyl)sulfonyl]-nicotinamide]", "IC50": "> 200"},
      {"compound": "Cc1cnc(N[C@H]2CC[C@@H](NC(=O)c3cccnc3S(=O)(=O)c3cccc(C(F)(F)F)c3)CC2)nc1N(C)C", "note": "[Example 3287, N-(cis-4-{[4-(dimethylamino)-5-methylpyrimidin-2-yl]amino}cyclohexyl)-2-{[3-(trifluoromethyl)phenyl]sulfonyl}-nicotinamide]", "IC50": "50 to 200"},
      {"compound": "Cc1ccc(S(=O)(=O)c2ncccc2C(=O)N[C@H]2CC[C@@H](Nc3ncc(C)c(N(C)C)n3)CC2)cc1", "note": "[Example 3288, N-(cis-4-{[4-(dimethylamino)-5-methylpyrimidin-2-yl]amino}cyclohexyl)-2-[(4-methylphenyl)sulfonyl]nicotinamide]", "IC50": "50 to 200"},
      {"compound": "Cc1cnc(N[C@H]2CC[C@@H](NC(=O)c3cccnc3S(=O)(=O)c3ccc(Br)cc3)CC2)nc1N(C)C", "note": "[Example 3289, 2-[(4-bromophenyl)sulfonyl]-N-(cis-4-{[4-(dimethylamino)-5-methylpyrimidin-2-yl]amino}cyclohexyl)nicotinamide]", "IC50": "50 to 200"},
      {"compound": "Cc1cnc(N[C@H]2CC[C@@H](NC(=O)c3cccnc3S(=O)(=O)c3ccoc3C)CC2)nc1N(C)C", "note": "[Example 3290, N-(cis-4-{[4-(dimethylamino)-5-methylpyrimidin-2-yl]amino}cyclohexyl)-2-[(2-methyl-3-furyl)sulfonyl]nicotinamide]", "IC50": "> 200"},
      {"compound": "Cc1cnc(N[C@H]2CC[C@@H](NC(=O)c3cccnc3S(=O)(=O)c3ccc(C(F)(F)F)cc3)CC2)nc1N(C)C", "note": "[Example 3291, N-(cis-4-{[4-(dimethylamino)-5-methylpyrimidin-2-yl]amino}cyclohexyl)-2-{[4-(trifluoromethyl)phenyl]sulfonyl}-nicotinamide]", "IC50": "50 to 200"},
      {"compound": "Cc1cnc(N[C@H]2CC[C@@H](C(=O)N[C@@H](C)c3ccc(Cl)cc3)CC2)nc1N(C)C", "note": "[Example 3292, cis-N-[(1S)-1-(4-chlorophenyl)ethyl]-4-{[4-(dimethylamino)-5-methylpyrimidin-2-yl]amino}cyclohexanecarboxamide]", "IC50": "50 to 200"},
      {"compound": "Cc1cnc(N[C@H]2CC[C@@H](C(=O)N[C@@H](C)c3cc(C(F)(F)F)cc(C(F)(F)F)c3)CC2)nc1N(C)C", "note": "[Example 3293, cis-N-{(1S)-1-[3,5-bis(trifluoromethyl)phenyl]ethyl}-4-{[4-(dimethylamino)-5-methylpyrimidin-2-yl]amino}cyclohexanecarboxamide]", "IC50": "> 200"},
      {"compound": "Cc1cnc(N[C@H]2CC[C@@H](C(=O)N[C@H](C)c3ccccc3F)CC2)nc1N(C)C", "note": "[Example 3294, cis-4-{[4-(dimethylamino)-5-methylpyrimidin-2-yl]aminol}-N-[(1R)-1-(2-fluorophenyl)ethyl]cyclohexanecarboxamide]", "IC50": "> 200"},
      {"compound": "Cc1cnc(N[C@H]2CC[C@@H](C(=O)N[C@@H](C)c3ccccc3F)CC2)nc1N(C)C", "note": "[Example 3295, cis-4-{[4-(dimethylamino)-5-methylpyrimidin-2-yl]amino}-N-[(1S)-1-(2-fluorophenyl)ethyl]cyclohexanecarboxamide]", "IC50": "> 200"},
      {"compound": "Cc1cnc(N[C@H]2CC[C@@H](C(=O)N[C@H](C)c3ccc(Br)cc3)CC2)nc1N(C)C", "note": "[Example 3297, cis-N-[(1R)-1-(4-bromophenyl)ethyl]-4-{[4-(dimethylamino)-5-methylpyrimidin-2-yl]amino}cyclohexanecarboxamide]", "IC50": "50 to 200"},
      {"compound": "Cc1cnc(NC2CCC(C(=O)N[C@@H](C)c3cccc(C(F)(F)F)c3)CC2)nc1N(C)C", "note": "(stereo partly drawn) [Example 3298, 4-{[4-(dimethylamino)-5-methylpyrimidin-2-yl]amino}-N-{(1S)-1-[3-(trifluoromethyl)phenyl]ethyl}cyclohexanecarboxamide]", "IC50": "< 50"},
      {"compound": "Cc1cnc(NC2CCC(C(=O)N[C@H](C)c3cccc(C(F)(F)F)c3)CC2)nc1N(C)C", "note": "(stereo partly drawn) [Example 3299, 4-{[4-(dimethylamino)-5-methylpyrimidin-2-yl]amino}-N-{(1R)-1-[3-(trifluoromethyl)phenyl]ethyl}cyclohexanecarboxamide]", "IC50": "< 50"},
      {"compound": "Cc1cnc(NC2CCC(C(=O)N[C@@H](C)c3ccccc3C(F)(F)F)CC2)nc1N(C)C", "note": "(stereo partly drawn) [Example 3300, 4-{[4-(dimethylamino)-5-methylpyrimidin-2-yl]amino}-N-{(1S)-1-[2-(trifluoromethyl)phenyl]ethyl}cyclohexanecarboxamide]", "IC50": "< 50"},
      {"compound": "Cc1cnc(NC2CCC(C(=O)N[C@H](C)c3ccccc3C(F)(F)F)CC2)nc1N(C)C", "note": "(stereo partly drawn) [Example 3301, 4-{[4-(dimethylamino)-5-methylpyrimidin-2-yl]amino}-N-{(1R)-1-[2-(trifluoromethyl)phenyl]ethyl}cyclohexanecarboxamide]", "IC50": "> 200"}
    ]}
  ]
}
